Assay results from ChEMBL document CHEMBL5500371, “Arginine and tryptophan-rich dendritic antimicrobial peptides that disrupt membranes for bacterial infection in vivo” (Eur J Med Chem, 2024).
Calls of active or inactive are those of the source. The rule behind the calls is not given here. Where a SMILES comes first, the peptide text is derived from it. Side-chain parts run from the residue outwards.

What was measured:
Staphylococcus aureus [1] = assay: Antibacterial activity against Staphylococcus aureus ATCC 25923 assessed as inhibition of bacterial growth incubated for 20 hrs in presence of ZnCl2 by broth microdilution method (reference value: 16 microM); type: functional
Staphylococcus aureus [2] = assay: Synergistic antibacterial activity against rifampicin resistant Staphylococcus aureus ATCC 25923 assessed as fractional inhibitory concentration index at 0.25 to 4 times MIC incubated for 20 hrs in presence of rifampicin by checkerboard assay; type: functional
Staphylococcus aureus [3] = assay: Antibacterial activity against Staphylococcus aureus ATCC 25923 assessed as inhibition of bacterial growth incubated for 20 hrs in presence of KCl by broth microdilution method (reference value: 16 microM); type: functional
Escherichia coli [4] = assay: Synergistic antibacterial activity against Escherichia coli ATCC 25922 assessed as fractional inhibitory concentration index at 0.25 to 4 times MIC incubated for 20 hrs in presence of kanamycin by checkerboard assay; type: functional
Escherichia coli [5] = assay: Synergistic antibacterial activity against gentamicin resistant Escherichia coli ATCC 25922 assessed as fractional inhibitory concentration index at 0.25 to 4 times MIC incubated for 20 hrs in presence of gentamicin by checkerboard assay; type: functional
[6] = Therapeutic index, ratio of MHC10 for hemolytic activity in mouse erythrocytes preincubated with 10% mouse serum for 6 hrs to MIC for Staphylococcus aureus ATCC 25923 preincubated with 10% mouse serum for 6 hrs; type: toxicity, cell-based; details: mouse erythrocytes, read-out: TI
Cell membrane [7] = assay: Disruption of cell membrane morphology in Staphylococcus aureus assessed as release of cellular contents at 2 times MIC measured after 0.5 to 2 hrs by SEM analysis; type: cell membranes; details: time 0.5-2 hrs
Cell membrane [8] = assay: Disruption of cell membrane morphology in Escherichia coli assessed as release of cellular contents at 2 times MIC measured after 0.5 to 2 hrs by SEM analysis; type: cell membranes; details: time 0.5-2 hrs
Cell membrane [9] = assay: Disruption of cell membrane morphology in Staphylococcus aureus assessed as partial creasing in bacterial membrane at 2 times MIC measured after 0.5 to 2 hrs by SEM analysis; type: cell membranes; details: time 0.5-2 hrs
Lipopolysaccharide (LPS) = assay: Binding affinity to LPS (unknown origin) assessed as reduction in bacterial mortality at 2 times MIC preincubated with LPS for 1 hr followed by bacteria addition and measured after 18 hrs by microplate reader analysis; type: subcellular; details: time 19.0 hrs
[10] = Cytotoxicity against HEK293T cells assessed as cell death measured after 1 hr by resazurin dye based analysis; type: toxicity, HEK-293T; details: human, HEK293T cells
[11] = Acute toxicity in male BALB/c mouse assessed as torpid movement at 80 to 130 mg/kg, ip administered as single dose and measured after 3 days; type: organism-based; details: in vivo, 72 h, dose 80-130 mg/kg, time 3 day
Escherichia coli [12] = assay: Bactericidal activity against Escherichia coli ATCC 25922 assessed as elimination of bacteria at 2 times MIC measured within 2 hrs by time kill assay; type: functional, organism-based
Staphylococcus aureus [13] = assay: Resistant development in Staphylococcus aureus assessed as increase in MIC at sub-MIC in presence of rifampicin measured after 20 passages; type: functional, organism-based
Erythrocyte = assay: Hemolytic activity in mouse erythrocytes assessed as 10% hemolysis incubated for 1 hr by absorbance based analysis; type: toxicity, cell-based
Escherichia coli [14] = assay: Drug resistance, ratio of MIC for Escherichia coli after 20 passages to MIC for Escherichia coli after initial exposure; type: functional
Cell membrane [15] = assay: Disruption of cell membrane morphology in Escherichia coli assessed as loss of intact cell morphology at 2 times MIC measured after 0.5 to 2 hrs by SEM analysis; type: cell membranes; details: time 0.5-2 hrs
[16] = Therapeutic index, ratio of MHC10 for hemolytic activity in mouse erythrocytes preincubated with 10% mouse serum for 1 hr to MIC for Escherichia coli ATCC 25922 preincubated with 10% mouse serum for 1 hr; type: toxicity, cell-based; details: mouse erythrocytes, read-out: TI
[17] = Acute toxicity in male BALB/c mouse assessed as lusterless fur at 80 to 130 mg/kg, ip administered as single dose and measured after 3 days; type: organism-based; details: in vivo, 72 h, dose 80-130 mg/kg, time 3 day
[18] = Stability in mouse serum assessed as half life at 10 mM measured upto 24 hrs by RP-HPLC analysis; type: ADME, cell-free
Escherichia coli [19] = assay: Additive antibacterial activity against Escherichia coli ATCC 25922 assessed as fractional inhibitory concentration index at 0.25 to 4 times MIC incubated for 20 hrs in presence of vancomycin by checkerboard assay; type: functional
Staphylococcus aureus [20] = assay: Bactericidal activity against Staphylococcus aureus ATCC 25923 assessed as elimination of bacteria at 2 times MIC measured after 1.5 hrs by time kill assay; type: functional
Cell membrane [21] = assay: Induction of inner membrane permeabilization in Escherichia coli ML-35 ATCC 43837 at 0.5 to 4 times MIC measured every 5 mins over 135 mins by ONPG reagent based microplate reader analysis
Escherichia coli [22] = assay: Antibiofilm activity against Escherichia coli ATCC 25922 assessed as inhibition of biofilm formation at 0.5 to 4 times MIC measured after 24 hrs by crystal violet staining based analysis; type: functional, organism-based
Cell membrane [23] = assay: Induction of outer membrane permeabilization in Escherichia coli assessed as increase in fluorescence intensity at 0.5 to 4 times MIC measured within 1 min by NPN dye based assay
Cell membrane [24] = assay: Disruption of cell membrane morphology in Escherichia coli assessed as breakage of cell membrane at 2 times MIC measured after 0.5 to 2 hrs by SEM analysis; type: cell membranes; details: time 0.5-2 hrs
Cell membrane [25] = assay: Induction of cell membrane damage in Staphylococcus aureus assessed as increase in PI uptake at 2 times MIC measured after 2 hrs by PI dye based flow cytometry analysis; type: cell membranes
Escherichia coli [26] = assay: Resistant development in Escherichia coli assessed as increase in MIC at sub-MIC in presence of rifampicin measured after 20 passages; type: functional, organism-based
[27] = Therapeutic index, ratio of MHC10 for hemolytic activity in mouse erythrocytes preincubated with 10% mouse serum for 6 hrs to MIC for Escherichia coli ATCC 25922 preincubated with 10% mouse serum for 6 hrs; type: toxicity, cell-based; details: mouse erythrocytes, read-out: TI
Escherichia coli [28] = assay: Resistant development in Escherichia coli assessed as increase in MIC at sub-MIC in presence of gentamicin measured after 20 passages; type: functional, organism-based
Staphylococcus aureus [29] = assay: Synergistic antibacterial activity against Staphylococcus aureus ATCC 25923 assessed as fractional inhibitory concentration index at 0.25 to 4 times MIC incubated for 20 hrs in presence of polymyxin B by checkerboard assay; type: functional
Cell membrane [30] = assay: Induction of cell membrane damage in Escherichia coli assessed as PI uptake at 2 times MIC measured after 0.5 hrs by PI dye based flow cytometry analysis (reference value: 18.1%); type: cell membranes
Staphylococcus aureus [31] = assay: Antibiofilm activity against Staphylococcus aureus ATCC 25923 assessed as inhibition of biofilm formation at 0.5 to 4 times MIC measured after 24 hrs by crystal violet staining based analysis; type: functional, organism-based
Escherichia coli [32] = assay: […] activity against Escherichia coli ATCC 25922 infected in male BALB/c pulmonary infection model assessed as reduction in liver hemorrhage at 5 to 10 mg/kg, ip administered at 3 and 12 hrs post infection and measured 24 hrs post infection by H and E staining based analysis; type: functional, organism-based; details: dose 5-10 mg/kg, time 12-21 hrs
Cell membrane [33] = assay: Induction of outer membrane permeabilization in Escherichia coli assessed as increase in fluorescence intensity at 0.5 to 4 times MIC measured for 12 mins by NPN dye based assay
Staphylococcus aureus [34] = assay: Drug resistance, ratio of MIC for Staphylococcus aureus after 20 passages to MIC for Staphylococcus aureus after initial exposure; type: functional

Molecule | MIC (Staphylococcus aureus [1]) [µM] | fractional inhibitory concentration index (FICI) (Staphylococcus aureus [2]) | MIC (Staphylococcus aureus [3]) [µM] | fractional inhibitory concentration index (FICI) (Escherichia coli [4]) | fractional inhibitory concentration index (FICI) (Escherichia coli [5]) | selectivity ratio [6] | Activity (Cell membrane [7]) | Activity (Cell membrane [8]) | Activity (Cell membrane [9]) | Activity (Lipopolysaccharide (LPS)) | CC50 at 1 h [10] [µM] | Activity [11] | Activity (Escherichia coli [12]) | Activity (Staphylococcus aureus [13]) | MHC10 (Erythrocyte) [µM] | Ratio (Escherichia coli [14]) | Activity (Cell membrane [15]) | selectivity ratio [16] | Activity [17] | half-life at 10000 µM [18] [min] | also measured
POLYMYXIN B | 16 | 0.5 | 16 | 0.5 | 0.312 |  |  |  |  |  |  |  |  |  |  |  |  |  |  |  | 
N=C(N)NCCC[C@H](NC(=O)[C@H](CCCNC(=N)N)NC(=O)[C@H](CCCNC(=N)N)NC(=O)[C@@H](N)CCCNC(=N)N)C(=O)N[C@@H](CCCCN)C(=O)N[C@@H](Cc1c[nH]c2ccccc12)C(=O)N[C@@H](Cc1c[nH]c2ccccc12)C(=O)N[C@@H](Cc1c[nH]c2ccccc12)C(=O)N[C@@H](Cc1c[nH]c2ccccc12)C(N)=O |  | 0.5 |  | 0.5 |  | 0.5 | Active | Active | Active | Active | > 128 | Toxic | Active | inactive | > 256 | <=2 | Active | 0.5 | Toxic | 258 | fractional inhibitory concentration index (FICI) (Escherichia coli [19]): 0.625; Activity (Staphylococcus aureus [20]): 100%; Activity (Cell membrane [21]): Dose-Dependent Effect; Activity (Escherichia coli [22]): Dose-Dependent Effect; Activity (Cell membrane [23]): Active; Activity (Cell membrane [24]): Active; Activity (Cell membrane [25]): inactive; Activity (Escherichia coli [26]): inactive; selectivity ratio [27]: 0.25; Activity (Escherichia coli [28]): inactive; fractional inhibitory concentration index (FICI) (Staphylococcus aureus [29]): 0.375; Activity (Cell membrane [30]): > 80%; Activity (Staphylococcus aureus [31]): Dose-Dependent Effect; Activity (Escherichia coli [32]): Active; Activity (Cell membrane [33]): Dose-Dependent Effect; Ratio (Staphylococcus aureus [34]): <=2
N=C(N)NCCC[C@H](NC(=O)[C@@H](N)CCCNC(=N)N)C(=O)NCCCC[C@H](NC(=O)[C@H](CCCNC(=N)N)NC(=O)[C@@H](N)CCCNC(=N)N)C(=O)N[C@@H](Cc1c[nH]c2ccccc12)C(=O)N[C@@H](Cc1c[nH]c2ccccc12)C(=O)N[C@@H](Cc1c[nH]c2ccccc12)C(=O)N[C@@H](Cc1c[nH]c2ccccc12)C(N)=O (H-RRK([Arg-Arg])WWWW-NH2) | 16 |  | 8 |  | 5 | 1 | Active | Active | Active | Active | > 128 | Toxic | Active | inactive | > 256 | <=2 | Active | 1 | Toxic | 443 | fractional inhibitory concentration index (FICI) (Escherichia coli [19]): 0.563; Activity (Staphylococcus aureus [20]): 100%; Activity (Cell membrane [21]): Dose-Dependent Effect; Activity (Escherichia coli [22]): Dose-Dependent Effect; Activity (Cell membrane [23]): Active; Activity (Cell membrane [24]): Active; Activity (Cell membrane [25]): inactive; Activity (Escherichia coli [26]): inactive; selectivity ratio [27]: 0.5; Activity (Escherichia coli [28]): inactive; fractional inhibitory concentration index (FICI) (Staphylococcus aureus [29]): 0.313; Activity (Cell membrane [30]): > 80%; Activity (Staphylococcus aureus [31]): Dose-Dependent Effect; Activity (Escherichia coli [32]): Active; Activity (Cell membrane [33]): Dose-Dependent Effect; Ratio (Staphylococcus aureus [34]): <=2
